Assay results taken from patent EP0039388A2, “Diagnostic method for the determination of the liver function” (Röhm Pharma GmbH, priority 1980, dated 1981).
“Also recorded” adds a separate entry of the source. Read-outs that look alike come from different tables or passages of the source.

Experiments:
Assay type in all cases: in vivo, Menschen
[1] = Ratio of TA to OH-TA-Ester in plasma and/or urine after oral administration of triamterene (liver function test); settings: for Verhältnis des OH-TA-Esters zu TA: printed as (x):1
Source text: Es wurde gefunden, daß sich Einschränkungen der Leberfunktion mit sehr geringem Aufwand und mit großer diagnostischer und analytischer Sicherheit nachweisen lassen, wenn man 2,4,7-Triamino-6-phenylpteridin (Triamteren = TA) dem Patienten oral verabreicht und in geeignetem zeitlichen Abstand das Verhältnis TA zu OH-TA-Ester im Plasma und/oder im Urin des Patienten bestimmt. Bei normaler Leberfunktion beträgt das Verhältnis TA zu OH-TA-Ester 1:3 bis 1:10. […] Man findet demnach je nach Einschränkung der Leberfunktion mehr natives TA als OH-TA-Ester, was als eine direkte Auswirkung der gestörten Funktion der Leber zu metabolischer Umwandlung von körperfremden Stoffen im Organismus und damit als Indikator für die Leberfunktion überhaupt gewertet werden kann.
Die Verabreichung des Triamteren zur erfindungsgemäßen Bestimmung der Leberfunktionseinschränkung geschieht oral. Bei der Herstellung der Verabreichungsformen (Kapseln, Tabletten etc.) und der Verabreichung selbst, kann von den Erfahrungen mit Triamteren als Therapeutikum ausgegangen werden. Die zur Durchführung des erfindungsgemäßen diagnostischen Verfahrens benötigten Mengen an Triamteren können innerhalb gewisser Grenzen schwanken, beispielsweise zwischen 50 und 300 mg, vorzugsweise bis 100 mg. Zur Einhaltung standardisierter Bedingungen kann es zweckmäßig sein, gleichbleibende Quantitäten an Triamteren zu verabreichen. Dabei kann vorteilhaft von bereits auf dem Markt befindlichen Handelsformen (z. B. Kapseln mit 50 mg Triamteren Jatropur^R) Gebrauch gemacht werden.
(§1) Bei dem Test wurde darauf geachtet, daß die Versuchspersonen der gleichen Altersgruppe und dem gleichen Geschlecht angehörten und eine annähernd gleiche Nierenfunktion vorlag. Während der Versuchsperiode waren sie stationär aufgenommen und unterlagen denselben Ernährungsbedingungen. Außer den unumgänglich notwendigen, wurden alle anderen Medikamente, insbesondere Diuretika vor Versuchsbeginn abgesetzt.
Die Plasmahalbwertszeiten wurden nach der Formel t50 % = [formula] berechnet, die Flächen unter den Kurven konnten mit Hilfe der Trapezregel errechnet werden. […]

[2] = Plasma half-lives of TA and OH-TA-Ester after oral triamterene; settings: for half-life: human, plasma, po, read-out: Plasmahalbwertszeiten (converted)
Source text: as §1
Die Plasmahalbwertszeiten wurden nach der Formel t50 % = [formula] berechnet, die Flächen unter den Kurven konnten mit Hilfe der Trapezregel errechnet werden.
Die Plasmaproben werden mit dem doppelten Volumen Methanol verdünnt, das ausfallende Protein ausgefällt. Vom Überstand wird ein definierter Anteil auf Kieselgel-Platten (z. B. Kieselgel-60-Fertigplatten "Merck") ohne Fluoresz.enzindi- kator aufgetragen. Anschließend wird mit dem Fließmittel Essigsäureethylester/Methanol/Ammoniak 25 %ig (60 + 30 + 10) bei Kammersättigung chromatographiert. Danach werden die Platten getrocknet und die Substanzen fluoreszenzspektroskopisch gemessen.

[3] = Urinary excretion of TA and OH-TA-Ester after oral triamterene
Source text: as §1
Die Durchführung des erfindungsgemäßen diagnostischen Verfahrens kann ebenfalls mit dem Urin der Patienten erfolgen. Während einer Versuchsdauer von 5 Tagen konnte TA und der OH-TA-Ester nachgewiesen werden.
Analog kann auch die Konzentration von TA und OH-TA-Ester im Urin bestimmt werden.

SMILES | Verhältnis des OH-TA-Esters zu TA ([1]; Lebergesunde) | Verhältnis des OH-TA-Esters zu TA ([1]; Leberzirrhotiker, ratio reversed in one cirrhotic) | Konzentration des OH-TA-Esters in Plasma höher als die der nativen Substanz Triamteren (TA) ([1]; subjects with healthy liver, plasma, fold over TA) | Plasmahalbwertszeiten, change in Leberzirrhotiker versus Lebergesunde ([2]; Leberzirrhotiker compared with Lebergesunde) | Ausscheidung im Harn beendet ([3]; Lebergesunde, time after which excretion has ended) [Stunden] | Ausscheidung im Harn nicht völlig abgeschlossen ([3]; Leberzirrhotiker, excretion still not fully complete at this time) [Tagen] | Nachweis im Urin ([3]; patients' urine, test duration of 5 days) | half-life ([2]; Lebergesunde) [h] | half-life ([2]; Leberzirrhotiker, average) [h] | Ausscheidung im Harn beendet ([3]; in vivo) [Stunden] | Ausscheidung im Harn nicht völlig abgeschlossen ([3]; in vivo) [Tagen]
Nc1nc(N)c2nc(-c3ccc(OS(=O)(=O)O)cc3)c(N)nc2n1 [OH-TA-Ester] | 4-10 | 1-3,2 | vier- bis zwölffache | auf das Doppelte verlängert; also recorded: deutlich erhöht, beispielsweise verdoppelt | 72 | > 5 | nachgewiesen |  |  |  | 
Nc1nc(N)c2nc(-c3ccccc3)c(N)nc2n1 [TA, 2,4,7-Triamino-6-phenylpteridin] |  |  |  |  |  |  |  | ~5.5 | 11.2 | 72 | > 5
